Measurements as given in patent publication US20070072938A1, “DRONABINOL TREATMENT OF DELAYED CHEMOTHERAPY-INDUCED NAUSEA AND VOMITING” (priority 2005, published 2007).
Marks after values point to notes of the source that are not given here.

What was measured:
[1] = test system: patients receiving moderately to highly emetogenic chemotherapy; test: Randomized, double-blind, placebo-controlled study: antiemetic efficacy in delayed CINV (Days 2-5); type: in vivo, human; settings: for Absence of nausea / Absence of nausea (frequency/n) / Mean vomiting/retching / Total response (frequency/n) / Mean nausea intensity: Days 2-5; for Mean nausea intensity: 100-mm VAS; for Total response: Days 2-5 LOCF end point, TR = nausea <5 mm VAS, no vomiting/retching, no rescue; for Complete Response: No / Complete Response: Yes: LOCF End Point (Days 2-5)
Protocol: (§1) A randomized, double-blind, placebo-controlled, parallel-group study evaluating the antiemetic efficacy and tolerability of oral dronabinol alone, dronabinol in combination with ondansetron, ondansetron alone, and placebo in patients receiving moderate to high emetogenic chemotherapy was conducted. All patients received dexamethasone 20 mg and ondansetron 16 mg intravenously prechemotherapy. […] On Day 2, placebo or fixed doses of 10 mg dronabinol, 16 mg ondansetron, or dronabinol plus ondansetron were administered. On Days 3-5, patients received placebo, flexible doses of 10-20 mg dronabinol, 8-16 mg ondansetron, or dronabinol plus ondansetron. Rescue antiemetics were permitted after using the maximum dose of medication. The primary efficacy variable was total response (“TR”) to study medication (TR=nausea intensity<5 mm on a 100-mm visual analog scale, no vomiting/retching, no rescue antiemetic). Secondary efficacy parameters included nausea status and intensity, as well as episodes of vomiting/retching. […] TR and presence/absence of nausea were evaluated using the Fisher's Exact Test. Tolerability was assessed by physical examination and adverse events.
All efficacy analyses were based on the ITT population.
This was a randomized, double-blind, placebo-controlled, parallel-group, 5-day study to evaluate the antiemetic efficacy and safety of oral dronabinol (sole under the trade name, Marinol®) alone, and in combination with ondansetron (sole under the trade name, Zofran®), versus ondansetron alone in patients receiving moderately to highly emetogenic chemotherapy. The investigator obtained written approval from the Institutional Review Board, and the study was conducted in accordance with the Declaration of Helsinki.
Patients who entered the study were to undergo cancer chemotherapy with moderately to highly emetogenic agents on Day 1 when they were randomized into 1 of 4 treatment groups: dronabinol alone (Group Dronabinol), ondansetron alone (Group Ondansetron), combination therapy with dronabinol and ondansetron (Group Dronabinol/Ondansetron), or placebo (Group Placebo). All patients received a standard prechemotherapy regimen of dexamethasone (20 mg) and ondansetron (16 mg). […] Placebo patients received matching placebo prechemotherapy and postchemotherapy on Day 1.
(§2) A kit of open-label antiemetics (metoclopramide 10 mg, prochlorperazine 5 mg, and prochlorperazine 25-mg suppository) was provided to the study participants for use on Days 1 through 8 as rescue medications to treat intolerable nausea and vomiting and/or retching after using the maximum dose of study medication at any dosing interval. Patients recorded the use of rescue medication and returned the unused portion of the kit.
Each morning, patients recorded the number of vomiting and/or retching episodes in the previous day. In addition, the patient recorded the daily presence or absence of nausea and its duration.
The primary efficacy measure was the incidence of total response to treatment following administration of moderately to highly emetogenic chemotherapeutic agents. Total response was defined as no vomiting and/or retching, intensity of nausea <5 mm on a 100-mm Visual Analog Scale (VAS scale 0-100 mm; 0 mm=no nausea; 100 mm=intractable nausea), and no use of rescue medication.
The secondary efficacy analysis included patients who took rescue medication. However, analyses were conducted only on data collected before the use of any rescue medication. The secondary efficacy assessments were complete response, presence or absence of nausea, episodes of vomiting and/or retching, duration of nausea and vomiting and/or retching, intensity of nausea measured by VAS, ECOG (wellness), and QoL. Complete response for vomiting/retching was defined as no vomiting/retching, intensity of nausea of ≦30 mm on the VAS, and no use of rescue therapy.

[2] = test system: patients receiving moderately to highly emetogenic chemotherapy; test: ECOG (wellness) and McCorkle Symptom Distress Scale (QoL) assessment; type: in vivo, human
Protocol: The secondary efficacy analysis included patients who took rescue medication. However, analyses were conducted only on data collected before the use of any rescue medication. The secondary efficacy assessments were complete response, presence or absence of nausea, episodes of vomiting and/or retching, duration of nausea and vomiting and/or retching, intensity of nausea measured by VAS, ECOG (wellness), and QoL. Complete response for vomiting/retching was defined as no vomiting/retching, intensity of nausea of ≦30 mm on the VAS, and no use of rescue therapy. The presence or absence of nausea, episodes of vomiting and/or retching, and duration of nausea and vomiting and/or retching were assessed from daily patient telephone diary entries completed each morning to report the previous day. The patient was prompted through the Interactive Voice Response System to use the standard VAS to assess nausea intensity. The ECOG (wellness) assessment was clinician administered at screening and again on Day 6, Day 7, or Day 8 (or early termination). The possible range of the ECOG assessment was 0 to 4, where 0 was normal activity with no limitations and 4 was very sick, rarely out of bed.
The McCorkle Symptom Distress Scale (QoL assessment) evaluation was conducted on Day 1 (postchemotherapy) and again on Day 6, Day 7, or Day 8 (or early termination). […]

[3] = test system: patients receiving moderately to highly emetogenic chemotherapy; test: Other analyses: rescue antiemetic use and compliance with study medication; type: in vivo, human; settings: for patients who required rescue medicine: Day 5; for Rescue antiemetics used (patients): whole study
Protocol: as §2
For the primary efficacy parameter, a logistic regression model was used for the primary analysis and a Cochran-Mantel-Haenszel (“CMH”) test stratified by pooled center was performed as a supportive analysis. Continuous secondary efficacy parameters were analyzed for all pairwise comparisons using a 2-way analysis of variance (“ANOVA”) with treatment and pooled center as fixed factors. For data that was not normally distributed, data were ranked, and an ANOVA was performed on the ranked scores. Categorical secondary efficacy parameters were analyzed for all pairwise comparisons using the CMH test stratified by pooled center. No adjustment for multiple comparisons was performed for the secondary efficacy parameters. No interactions were examined for the secondary efficacy parameters. Compliance with study medication was defined as taking all doses of supplied medication and was measured throughout the trial.

[4] = test system: patients receiving moderately to highly emetogenic chemotherapy; test: Safety and tolerability: treatment-emergent adverse events (safety population)
Protocol: as §1
AEs and concomitant medications were also assessed.

## CCCCCc1cc(O)c2c(c1)OC(C)(C)[C@@H]1CCC(C)=C[C@@H]21 [Dronabinol, delta-9-tetrahydrocannabinol]
[1]; Day 2
  Duration of nausea: 3-6 h: 0 n (%)
  Duration of nausea: 6-8 h: 1 (8) n (%)
  Duration of nausea: 8-10 h: 0 n (%)
  Duration of nausea: <3 h: 1 (8) n (%)
  Duration of nausea: >10 h: 2 (15) n (%)
  Duration of nausea: No nausea reported: 9 (69) n (%)
  Observed Duration of Vomiting/Retching (mean ± SD): 0.00 ± 0.00 h
[1]; Day 3
  Duration of nausea: 3-6 h: 0 n (%)
  Duration of nausea: 6-8 h: 2 (17) n (%)
  Duration of nausea: 8-10 h: 0 n (%)
  Duration of nausea: <3 h: 2 (17) n (%)
  Duration of nausea: >10 h: 1 (8) n (%)
  Duration of nausea: No nausea reported: 7 (58) n (%)
  Observed Duration of Vomiting/Retching (mean ± SD): 0.41 ± 1.36 h
[1]; Day 4
  Duration of nausea: 3-6 h: 0 n (%)
  Duration of nausea: 6-8 h: 0 n (%)
  Duration of nausea: 8-10 h: 0 n (%)
  Duration of nausea: <3 h: 1 (11) n (%)
  Duration of nausea: >10 h: 0 n (%)
  Duration of nausea: No nausea reported: 8 (89) n (%)
  Observed Duration of Vomiting/Retching (mean ± SD): 0.00 ± 0.01 h
[1]; Day 5
  Duration of nausea: 3-6 h: 0 n (%)
  Duration of nausea: 6-8 h: 0 n (%)
  Duration of nausea: 8-10 h: 0 n (%)
  Duration of nausea: <3 h: 1 (13) n (%)
  Duration of nausea: >10 h: 0 n (%)
  Duration of nausea: No nausea reported: 7 (88) n (%)
  Observed Duration of Vomiting/Retching (mean ± SD): 0.00 ± 0.00 h
[1]
  Absence of nausea: 71^† %
  Absence of nausea (frequency/n): (10/14)
  Mean vomiting/retching: 0.2 episodes/day
  Total response (frequency/n): (7/13)
  Mean nausea intensity: 10.1^† mm
  Total response: 54%
  Complete Response: No: 5 (38) n (%)
  Complete Response: Yes: 8 (62) n (%)
[1]; listed as dronabinol
  Absence of nausea: 71%
[1]; result in words
  antiemetic effect for delayed CINV: comparable with ondansetron
[2]; Day 1 versus Day 6, 7 or 8, lower values = less distress
  McCorkle Symptom Distress Scale (QoL), mean change from baseline: −2.0±4.2
[2]; result in words
  ECOG (wellness) change after treatment: Shifts in ECOG from 1 to 0 (improvement)
[3]
  patients who required rescue medicine: 12%
  Rescue antiemetics used (patients): 24%
[4]; Safety Population
  Adverse event: Asthenia: 2 (12) n (%)
  Adverse event: Chest pain: 1 (6) n (%)
  Adverse event: Constipation: 1 (6) n (%)
  Adverse event: Diarrhea: 4 (24) n (%)
  Adverse event: Dizziness: 1 (6) n (%)
  Adverse event: Fatigue: 2 (12) n (%)
  Adverse event: Headache: 0 n (%)
  Adverse event: Hyperglycemia: 0 n (%)
  Adverse event: Insomnia: 0 n (%)
  Patients who permanently discontinued study medication because of a TEAE: 1 (6) n (%)
  Patients with at least 1 SAE: 2 (12) n (%)
  Patients with at least 1 TEAE: 14 (82) n (%)
  Patients with at least 1 TEAE leading to dose reduction: 0 n (%)
  Patients with at least 1 severe TEAE: 2 (12) n (%)
[4]; result in words
  incidence of CNS-related events: low and few CNS-related AEs
  tolerability: well tolerated

## Cc1nccn1CC1CCc2c(c3ccccc3n2C)C1=O (stereo not drawn) [Ondansetron, ondansetron]
[1]; Day 2
  Duration of nausea: 3-6 h: 0 n (%)
  Duration of nausea: 6-8 h: 0 n (%)
  Duration of nausea: 8-10 h: 0 n (%)
  Duration of nausea: <3 h: 4 (33) n (%)
  Duration of nausea: >10 h: 1 (8) n (%)
  Duration of nausea: No nausea reported: 7 (58) n (%)
  Observed Duration of Vomiting/Retching (mean ± SD): 2.00 ± 6.93 h
[1]; Day 3
  Duration of nausea: 3-6 h: 0 n (%)
  Duration of nausea: 6-8 h: 1 (10) n (%)
  Duration of nausea: 8-10 h: 0 n (%)
  Duration of nausea: <3 h: 1 (10) n (%)
  Duration of nausea: >10 h: 0 n (%)
  Duration of nausea: No nausea reported: 8 (80) n (%)
  Observed Duration of Vomiting/Retching (mean ± SD): 0.06 ± 0.17 h
[1]; Day 4
  Duration of nausea: 3-6 h: 0 n (%)
  Duration of nausea: 6-8 h: 0 n (%)
  Duration of nausea: 8-10 h: 0 n (%)
  Duration of nausea: <3 h: 1 (13) n (%)
  Duration of nausea: >10 h: 0 n (%)
  Duration of nausea: No nausea reported: 7 (88) n (%)
  Observed Duration of Vomiting/Retching (mean ± SD): 0.00 ± 0.00 h
[1]; Day 5
  Duration of nausea: 3-6 h: 1 (14) n (%)
  Duration of nausea: 6-8 h: 0 n (%)
  Duration of nausea: 8-10 h: 0 n (%)
  Duration of nausea: <3 h: 0 n (%)
  Duration of nausea: >10 h: 0 n (%)
  Duration of nausea: No nausea reported: 6 (86) n (%)
  Observed Duration of Vomiting/Retching (mean ± SD): 0.02 ± 0.06 h
[1]
  Absence of nausea: 64^† %
  Absence of nausea (frequency/n): (9/14)
  Mean vomiting/retching: 1.3 episodes/day
  Total response (frequency/n): (7/12)
  Mean nausea intensity: 24.0^† mm
  Total response: 58%
  Complete Response: No: 5 (42) n (%)
  Complete Response: Yes: 7 (58)* n (%)
[1]; listed as ondansetron
  Absence of nausea: 64%
[3]
  patients who required rescue medicine: 25%
  Rescue antiemetics used (patients): 31%
[4]; human, in vivo
  Adverse event: Asthenia: 1 (6) n (%)
  Adverse event: Chest pain: 2 (13) n (%)
  Adverse event: Constipation: 2 (13) n (%)
  Adverse event: Diarrhea: 1 (6) n (%)
  Adverse event: Dizziness: 1 (6) n (%)
  Adverse event: Fatigue: 1 (6) n (%)
  Adverse event: Headache: 3 (19) n (%)
  Adverse event: Hyperglycemia: 2 (13) n (%)
  Adverse event: Insomnia: 2 (13) n (%)
  Patients who permanently discontinued study medication because of a TEAE: 2 (13) n (%)
  Patients with at least 1 SAE: 1 (6) n (%)
  Patients with at least 1 TEAE: 14 (88) n (%)
  Patients with at least 1 TEAE leading to dose reduction: 0 n (%)
  Patients with at least 1 severe TEAE: 1 (6) n (%)
